The values below come from PubChem BioAssay AID1745844 (Carcinogenic Potency Database (CPDB), 2022).

Activity calls are given as the source filed them. The rule behind the calls is not given here.

The series has as its system rodent lifetime carcinogenesis bioassay, tumor incidence TD50. The experiment in a line: chronic cancer bioassays in animals – CPDB, compiled studies (AID 1745844).
Where [1] appears, read: mouse, strain B6AKF1, females, oral dosing, site: any site (literature study), lesion: several types, types named in the paper, dosed 76 weeks, study length 76 weeks.
Setting [2] is: mouse, strain B6AKF1, females, oral dosing, site: lung, lesion: adenoma, dosed 76 weeks, study length 76 weeks.
Setting [3] is: mouse, strain B6AKF1, males, oral dosing, site: any site (literature study), lesion: several types, types named in the paper, dosed 76 weeks, study length 76 weeks.
Setting [4] is: mouse, strain B6AKF1, males, oral dosing, site: liver, lesion: hepatoma, dosed 76 weeks, study length 76 weeks.
Where [5] appears, read: mouse, strain B6C3F1, females, oral dosing, site: any site (literature study), lesion: several types, types named in the paper, dosed 76 weeks, study length 76 weeks.
Where [6] appears, read: mouse, strain B6C3F1, females, oral dosing, site: liver, lesion: hepatoma, dosed 76 weeks, study length 76 weeks.
Where [7] appears, read: mouse, strain B6C3F1, females, oral dosing, site: lung, lesion: several types, types named in the paper, dosed 76 weeks, study length 76 weeks.
[8] abbreviates: mouse, strain B6C3F1, males, oral dosing, site: any site (literature study), lesion: several types, types named in the paper, dosed 76 weeks, study length 76 weeks.
[9] abbreviates: mouse, strain B6C3F1, males, oral dosing, site: liver, lesion: hepatoma, dosed 76 weeks, study length 76 weeks.
Where [10] appears, read: mouse, strain B6C3F1, males, oral dosing, site: lung, lesion: adenoma, dosed 76 weeks, study length 76 weeks.

Usually TD50 stands for the 50% point of the dose-response relation for the toxic effect studied. On to `CCN(CC)C(=S)SSC(=S)N(CC)CC`, for which the TD50 under setting [1] came to 1940 mg/kg/day; the TD50 under setting [2] worked out at 4140 mg/kg/day; the TD50 under setting [3] stood at 10.1 mg/kg/day; the TD50 under setting [4] was found to be 197 mg/kg/day; the TD50 (mouse, strain B6AKF1, males, oral dosing, site: subcutaneous tissue, lesion: fibrosarcoma, dosed 76 weeks, study length 76 weeks) turned out to be 15.4 mg/kg/day; the TD50 (mouse, strain B6C3F1, females, in feed, site: liver, lesion: hepatocellular adenoma + hepatocellular carcinoma + neoplastic nodule, dosed 108 weeks, study length 108 weeks) was found to be 120 mg/kg/day. Besides, the TD50 by setting is: (mouse, strain B6C3F1, females, in feed, site: lung, lesion: alveolar/bronchiolar adenoma + alveolar/bronchiolar carcinoma, dosed 108 weeks, study length 108 weeks) 323 mg/kg/day; under setting [5], 64.5 mg/kg/day; under setting [6], 283 mg/kg/day; (mouse, strain B6C3F1, females, oral dosing, site: lung, lesion: adenoma, dosed 76 weeks, study length 76 weeks) 283 mg/kg/day; (mouse, strain B6C3F1, females, oral dosing, site: lung, lesion: carcinoma, dosed 76 weeks, study length 76 weeks) 283 mg/kg/day; under setting [7], 138 mg/kg/day. The TD50 under setting [8] was determined as 17 mg/kg/day; the TD50 under setting [9] turned out to be 23.7 mg/kg/day; the TD50 under setting [10] worked out at 43.2 mg/kg/day; the TD50 (rat, strain Charles River CD (Sprague-Dawley), females, in feed, site: any site (literature study), lesion: several types, types named in the paper, dosed 78 weeks, study length 78 weeks) was 193 mg/kg/day; the TD50 (rat, strain Charles River CD (Sprague-Dawley), females, in feed, site: liver, lesion: neoplastic nodule, dosed 104 weeks, study length 104 weeks) is 41100 mg/kg/day (inactive); the TD50 (rat, strain Charles River CD (Sprague-Dawley), females, in feed, site: mammary gland, lesion: several types, types named in the paper, dosed 78 weeks, study length 78 weeks) came to 68.9 mg/kg/day. Moreover, the TD50 (rat, strain Charles River CD (Sprague-Dawley), males, in feed, site: liver, lesion: hepatocellular tumor, dosed 78 weeks, study length 78 weeks) turned out to be 366 mg/kg/day; the TD50 (rat, strain Charles River CD (Sprague-Dawley), males, in feed, site: liver, lesion: neoplastic nodule, dosed 104 weeks, study length 104 weeks) was 678 mg/kg/day (inactive); the TD50 (rat, strain Fischer 344, females, in feed, site: liver, lesion: hepatocellular adenoma + hepatocellular carcinoma + neoplastic nodule, dosed 107 weeks, study length 107 weeks) was 1430 mg/kg/day. Moreover, the carcinogen call was “negative (inactive)” (mouse, strain B6C3F1, females, in feed, site: any site (literature study), lesion: several types, types named in the paper, dosed 108 weeks, study length 108 weeks); “negative (inactive)” (mouse, strain B6C3F1, males, in feed, site: any site (literature study), lesion: several types, types named in the paper, dosed 108 weeks, study length 108 weeks); “negative (inactive)” (rat, strain Charles River CD (Sprague-Dawley), females, in feed, site: any site (literature study), lesion: one or several types, types not named, dosed 104 weeks, study length 104 weeks); “negative (inactive)” (rat, strain Charles River CD (Sprague-Dawley), males, in feed, site: any site (literature study), lesion: one or several types, types not named, dosed 104 weeks, study length 104 weeks); “negative (inactive)” (rat, strain Charles River CD (Sprague-Dawley), males, in feed, site: liver, lesion: hepatocellular carcinoma, dosed 104 weeks, study length 104 weeks); “negative (inactive)” (rat, strain Fischer 344, females, in feed, site: any site (literature study), lesion: several types, types named in the paper, dosed 107 weeks, study length 107 weeks). Moreover, under “rat, strain Fischer 344, males, in feed, site: any site (literature study), lesion: several types, types named in the paper, dosed 107 weeks, study length 107 weeks”, the carcinogen call was “negative (inactive)”.

Consider `O=S(=O)(Oc1ccc(Cl)cc1)c1ccc(Cl)cc1`, for which the carcinogen call under setting [1] is “negative (inactive)”; the carcinogen call (mouse, strain B6AKF1, females, oral dosing, site: liver, lesion: hepatoma, dosed 76 weeks, study length 76 weeks) is “negative (inactive)”; the carcinogen call under setting [2] is “negative (inactive)”; the carcinogen call under setting [3] is “negative (inactive)”; the carcinogen call under setting [4] was “negative (inactive)”; the carcinogen call (mouse, strain B6AKF1, males, oral dosing, site: lung, lesion: adenoma, dosed 76 weeks, study length 76 weeks) is “negative (inactive)”. In addition, under setting [7], the carcinogen call was “negative (inactive)”. In addition, the TD50 by setting is: under setting [5], 931 mg/kg/day (inactive); under setting [6], 931 mg/kg/day (inactive); under setting [8], 84.5 mg/kg/day (inactive); under setting [9], 422 mg/kg/day (inactive); under setting [10], 869 mg/kg/day (inactive).

Turning to `O=c1cc[nH]c(=O)[nH]1`, the TD50 is, setting by setting: (mouse, strain B6C3F1, females, in feed, site: liver, lesion: hyperplastic nodule, dosed 96 weeks, study length 96 weeks) 18200 mg/kg/day; (mouse, strain B6C3F1, females, in feed, site: urinary bladder, lesion: carcinoma, in situ, dosed 96 weeks, study length 96 weeks) 56700 mg/kg/day; (mouse, strain B6C3F1, females, in feed, site: urinary bladder, lesion: leiomyosarcoma, dosed 96 weeks, study length 96 weeks) 56700 mg/kg/day; (mouse, strain B6C3F1, females, in feed, site: urinary bladder, lesion: transitional-cell carcinoma, dosed 96 weeks, study length 96 weeks) 1450 mg/kg/day; (mouse, strain B6C3F1, males, in feed, site: liver, lesion: hyperplastic nodule, dosed 96 weeks, study length 96 weeks) 48800 mg/kg/day; (mouse, strain B6C3F1, males, in feed, site: lung, lesion: adenocarcinoma, dosed 96 weeks, study length 96 weeks) 52300 mg/kg/day. Further, the TD50 is 25700 mg/kg/day (mouse, strain B6C3F1, males, in feed, site: urinary bladder, lesion: squamous-cell carcinoma, dosed 96 weeks, study length 96 weeks); 25700 mg/kg/day (mouse, strain B6C3F1, males, in feed, site: urinary bladder, lesion: transitional-cell carcinoma, dosed 96 weeks, study length 96 weeks); 9760 mg/kg/day (rat, strain F344/DuCrj, females, in feed, site: kidney/pelvis, lesion: carcinoma, dosed 104 weeks, study length 104 weeks); 29300 mg/kg/day (rat, strain F344/DuCrj, females, in feed, site: urinary bladder, lesion: squamous-cell papilloma, dosed 104 weeks, study length 104 weeks); 5640 mg/kg/day (rat, strain F344/DuCrj, females, in feed, site: urinary bladder, lesion: transitional-cell carcinoma, dosed 104 weeks, study length 104 weeks); 4260 mg/kg/day (rat, strain F344/DuCrj, females, in feed, site: urinary bladder, lesion: transitional-cell papilloma, dosed 104 weeks, study length 104 weeks). For the same molecule, the TD50 runs as follows: (rat, strain F344/DuCrj, males, in feed, site: kidney/pelvis, lesion: carcinoma, dosed 104 weeks, study length 104 weeks) 3090 mg/kg/day; (rat, strain F344/DuCrj, males, in feed, site: kidney/pelvis, lesion: papilloma, dosed 104 weeks, study length 104 weeks) 5750 mg/kg/day; (rat, strain F344/DuCrj, males, in feed, site: urinary bladder, lesion: leiomyosarcoma, dosed 104 weeks, study length 104 weeks) 24300 mg/kg/day; (rat, strain F344/DuCrj, males, in feed, site: urinary bladder, lesion: squamous-cell carcinoma, dosed 104 weeks, study length 104 weeks) 7800 mg/kg/day; (rat, strain F344/DuCrj, males, in feed, site: urinary bladder, lesion: squamous-cell papilloma, dosed 104 weeks, study length 104 weeks) 24300 mg/kg/day; (rat, strain F344/DuCrj, males, in feed, site: urinary bladder, lesion: transitional-cell carcinoma, dosed 104 weeks, study length 104 weeks) 357 mg/kg/day. Under “rat, strain F344/DuCrj, males, in feed, site: urinary bladder, lesion: transitional-cell papilloma, dosed 104 weeks, study length 104 weeks”, the TD50 worked out at 511 mg/kg/day.

In the case of `CO[C@H]1[C@@H](O)[C@@H](CO)OC(OC2C3CO[C@H]2[C@H](O)C(C)O3)[C@@H]1O` (some centres not stated), the carcinogen call (mouse, strain B6C3F1, females, in feed, site: any site (literature study), lesion: several types, types named in the paper, dosed 103 weeks, study length 105 weeks) is “negative (inactive)”. In addition, the TD50 is, setting by setting: (mouse, strain B6C3F1, males, in feed, site: any site (literature study), lesion: several types, types named in the paper, dosed 103 weeks, study length 105 weeks) 54900 mg/kg/day; (mouse, strain B6C3F1, males, in feed, site: liver, lesion: hepatocellular adenoma + hepatocellular carcinoma + neoplastic nodule, dosed 103 weeks, study length 105 weeks) 33100 mg/kg/day; (mouse, strain B6C3F1, males, in feed, site: liver, lesion: hepatocellular adenoma, dosed 103 weeks, study length 105 weeks) 18800 mg/kg/day (inactive); (mouse, strain B6C3F1, males, in feed, site: lung, lesion: alveolar/bronchiolar adenoma + alveolar/bronchiolar carcinoma, dosed 103 weeks, study length 105 weeks) 102000 mg/kg/day; (rat, strain Fischer 344, females, in feed, site: adrenal gland, lesion: cortical adenoma, dosed 103 weeks, study length 105 weeks) 25800 mg/kg/day (inactive); (rat, strain Fischer 344, males, in feed, site: any site (literature study), lesion: several types, types named in the paper, dosed 103 weeks, study length 105 weeks) 39300 mg/kg/day (inactive). Moreover, the TD50 (rat, strain Fischer 344, males, in feed, site: liver, lesion: hepatocellular adenoma + hepatocellular carcinoma + neoplastic nodule, dosed 103 weeks, study length 105 weeks) is 25900 mg/kg/day.
